Assay results reported in patent US20100314316A1, “HALOGENATED AMIDES AS BIOCIDES FOR TREATING WATER SYSTEMS CONTAINING REDUCING AGENTS” (priority 2009, published 2010).

Key:
Type in all cases: cell-based
[1] = test system: bacteria isolated from paper mill white water; assay: Biocidal efficacy of seven biocides in artificial white water; settings: artificial white water pH 8.1, 37 C
Experimental: Sterile artificial White Water (111 mg of CaCl2, 60 mg of MgSO4, 168 mg of NaHCO3, 140 mg of K2HPO4, 480 mg of NH4Cl, 1.04 mg of FeCl3.6H2O, 1.48 mg of Na2EDTA, 3000 mg of Dextrose, 10 mg of Yeast Extract, in 1 L water, pH 8.1) is contaminated with field isolated bacteria at a concentration of approximately 10^7 CFU/mL. The aliquots of this contaminated water are then treated with eight dosage levels of DBMAL and six other commonly used biocides in paper mill white water application. The same aliquots of the contaminated water without biocide are used as controls. After incubating at 37° C. for 4 hours, the valid bacteria in the aliquots are enumerated using a serial dilution method and the bacterial log10 reduction is calculated by comparing the valid bacteria number of biocide treated water aliquots to that of controls. Table 4 compares the efficacy of the seven biocides, expressed by bacterial log10 reduction.

field isolated bacteria = assay: Resistance of biocide to sulfite deactivation: biocide pretreated with sulfite in paper mill white water before efficacy testing; settings: for Decrease of efficacy due to sulfite pretreatment (bacterial log10 reduction): 80 ppm sulfite, 4 hrs; for Bacterial log10 reduction after treatment of biocide for 4 hrs: white water about pH 7.5, 37 C
Experimental: 50 ppm to 80 ppm sulfite is representative of a sulfite level for pulp and paper applications. The same white water sample without sulfite is used as none sulfite comparison and the same whitewater samples containing no biocide and with or without sulfite are used as controls. The water samples are incubated at 37° C. for 5 min and then are inoculated with field isolated bacteria at a concentration of approximately 10^7 CFU/mL. The mixtures are then incubated at 37° C. for 4 hours. After that, the viable bacteria in the mixtures is enumerated using a serial dilution method.

[2] = test system: bacteria in sulfite-containing white water; assay: Biocidal efficacy in presence of sulfite in contaminated paper mill white water (1-96 hours); settings: for Bacterial log10 reduction at time point after biocide addition: about 80 ppm sulfite; for Duration of effectiveness (>3 log10 killing) compared with DBNPA: sulfite-containing white water
Experimental: The same contaminated whitewater samples without biocide are used as controls. The mixtures are incubated at 37° C. with shaking (100 RPM) for 96 hrs. At 1 hr, 3 hrs, 24 hrs, 48 hrs, 72 hrs and 96 hrs time points after the biocide addition, the valid bacteria in the mixtures are enumerated using a serial dilution method and the bacterial log10 reduction is calculated by comparing the valid bacteria number of biocide treated water aliquots to that of controls. Starting from 24 hrs after the sampling, the mixtures are reinoculated with field isolated bacteria at about 10^5 CFU/mL and are supplied with additional sulfite to keep an 80 ppm sulfite concentration.

[3] = 80 ppm sulfite pretreated, 29.7 ppm biocide
[4] = 80 ppm sulfite pretreated, 44.5 ppm biocide
[5] = 80 ppm sulfite pretreated, 66.7 ppm biocide
[6] = 80 ppm sulfite pretreated, 100.0 ppm biocide
[7] = non-sulfite treated, 29.7 ppm biocide
[8] = non-sulfite treated, 44.5 ppm biocide
[9] = non-sulfite treated, 66.7 ppm biocide
[10] = non-sulfite treated, 100.0 ppm biocide
[11] = 25 ppm active, 1 hr, pH 7.6, 37 C
[12] = 25 ppm active, 3 hr, pH 7.6, 37 C
[13] = 25 ppm active, 24 hrs, pH 7.6, 37 C
[14] = 25 ppm active, 48 hrs, reinoculated from 24 hrs
[15] = 25 ppm active, 72 hrs, reinoculated from 24 hrs
[16] = 25 ppm active, 96 hrs, reinoculated from 24 hrs
[17] = 50 ppm active, 1 hr, pH 7.6, 37 C
[18] = 50 ppm active, 3 hr, pH 7.6, 37 C
[19] = 50 ppm active, 24 hrs, pH 7.6, 37 C
[20] = 50 ppm active, 48 hrs, reinoculated from 24 hrs
[21] = 50 ppm active, 72 hrs, reinoculated from 24 hrs
[22] = 50 ppm active, 96 hrs, reinoculated from 24 hrs

With `CC1(C)C(=O)N(Cl)C(=O)N1Br` [BCDMH, 1-Bromo-3-chloro-5,5-dimethylhydantoin] the “Minimum dosage (ppm, active) required for at least 3 log10 reduction in numbers of bacteria in 4 hours” value ([1]; active ppm measured by available bromine & chlorine (chlorine/bromine)) was 71.74 (chlorine/bromine) ppm.
For `NC(=O)C(Br)(Br)C(N)=O` [DBMAL, 2,2-Dibromomalonamide], the “Decrease of efficacy due to sulfite pretreatment (bacterial log10 reduction)” value (“Decrease … (bacterial log10 reduction)” for short) (field isolated bacteria; 29.7 ppm biocide) was 0.7 log10, the “Decrease … (bacterial log10 reduction)” value (field isolated bacteria; 44.5 ppm biocide) was 3.3 log10 and the “Decrease … (bacterial log10 reduction)” value (field isolated bacteria; 66.7 ppm biocide) was 2.7 log10. The “Bacterial log10 reduction after treatment of biocide for 4 hrs” value (“Bacterial log10 reduction … for 4 hrs” below) (field isolated bacteria; [3]) was 1.0 log10, the “Bacterial log10 reduction … for 4 hrs” value (field isolated bacteria; [4]) was 1.0 log10 and the “Bacterial log10 reduction … for 4 hrs” value (field isolated bacteria; [5]) was 2.3 log10. The “Bacterial log10 reduction … for 4 hrs” value (field isolated bacteria; [6]) was 2.3 log10, the “Decrease … (bacterial log10 reduction)” value (field isolated bacteria; 100.0 ppm biocide) was 2.4 log10 and the “Bacterial log10 reduction … for 4 hrs” value (field isolated bacteria; [7]) was 1.7 log10. The “Bacterial log10 reduction … for 4 hrs” value (field isolated bacteria; [8]) was 4.3 log10, the “Bacterial log10 reduction … for 4 hrs” value (field isolated bacteria; [9]) was 5.0 log10 and the “Bacterial log10 reduction … for 4 hrs” value (field isolated bacteria; [10]) was 4.7 log10. The “Decrease in efficacy when premixed with 80 ppm sulfite, compared with DBNPA” value (field isolated bacteria; premixed with 80 ppm sulfite) was “much smaller”, the “Bacterial log10 reduction at time point after biocide addition” value (“Bacterial log10 reduction at time point” for short) [2, 11] was 2.5 log10 and the “Bacterial log10 reduction at time point” value [2, 12] was 3.2 log10. The “Bacterial log10 reduction at time point” value [2, 13] was 4.2 log10, the “Bacterial log10 reduction at time point” value [2, 14] was 3.7 log10 and the “Bacterial log10 reduction at time point” value [2, 15] was 1.5 log10. For the same compound, the “Bacterial log10 reduction at time point” value [2, 16] was 1.2 log10, the “Bacterial log10 reduction at time point” value [2, 17] was “>=4.0 log10” and the “Bacterial log10 reduction at time point” value [2, 18] was 3.8 log10. The “Bacterial log10 reduction at time point” value [2, 19] was “>=4.3 log10”, the “Bacterial log10 reduction at time point” value [2, 20] was 4.3 log10 and the “Bacterial log10 reduction at time point” value [2, 21] was 4.2 log10. For the same compound, the “Bacterial log10 reduction at time point” value [2, 22] was 3.8 log10, the “Duration of effectiveness (>3 log10 killing) compared with DBNPA” value ([2]; same active concentration of 25 ppm) was “one more day” and the “Duration of effectiveness (>3 log10 killing) compared with DBNPA” value ([2]; same active concentration of 50 ppm) was “two more days”. For the same compound, the “Minimum dosage (ppm, active) required for at least 3 log10 reduction in numbers of bacteria in 4 hours” value ([1]; approximately 10^7 CFU/mL) was 81.92 ppm.
With `N#CC(Br)(Br)C(N)=O` [DBNPA, 2,2-Dibromo-3-nitrilopropionamide] the “Decrease … (bacterial log10 reduction)” value (field isolated bacteria; 29.7 ppm biocide) was “>=3.4 log10”, the “Decrease … (bacterial log10 reduction)” value (field isolated bacteria; 44.5 ppm biocide) was “>=4.4 log10” and the “Decrease … (bacterial log10 reduction)” value (field isolated bacteria; 66.7 ppm biocide) was “>=4.4 log10”. The “Bacterial log10 reduction … for 4 hrs” value (field isolated bacteria; [3]) was 1.3 log10, the “Bacterial log10 reduction … for 4 hrs” value (field isolated bacteria; [4]) was 1.3 log10 and the “Bacterial log10 reduction … for 4 hrs” value (field isolated bacteria; [5]) was 1.3 log10. The “Bacterial log10 reduction … for 4 hrs” value (field isolated bacteria; [6]) was 2.3 log10, the “Decrease … (bacterial log10 reduction)” value (field isolated bacteria; 100.0 ppm biocide) was “>=3.4 log10” and the “Bacterial log10 reduction … for 4 hrs” value (field isolated bacteria; [7]) was 4.7 log10. The “Bacterial log10 reduction … for 4 hrs” value (field isolated bacteria; [8]) was “>=5.7 log10”, the “Bacterial log10 reduction … for 4 hrs” value (field isolated bacteria; [9]) was “>=5.7 log10” and the “Bacterial log10 reduction … for 4 hrs” value (field isolated bacteria; [10]) was “>=5.7 log10”. The “Bacterial log10 reduction at time point” value [2, 11] was “>=4.0 log10”, the “Bacterial log10 reduction at time point” value [2, 12] was “>=4.0 log10” and the “Bacterial log10 reduction at time point” value [2, 13] was 3.3 log10. For the same compound, the “Bacterial log10 reduction at time point” value [2, 14] was 1.5 log10, the “Bacterial log10 reduction at time point” value [2, 15] was 0.3 log10 and the “Bacterial log10 reduction at time point” value [2, 16] was 0 log10. For the same compound, the “Bacterial log10 reduction at time point” value [2, 17] was “>=4.0 log10”, the “Bacterial log10 reduction at time point” value [2, 18] was “>=4.0 log10” and the “Bacterial log10 reduction at time point” value [2, 19] was “>=4.3 log10”. For the same compound, the “Bacterial log10 reduction at time point” value [2, 20] was 4.5 log10, the “Bacterial log10 reduction at time point” value [2, 21] was 1.0 log10 and the “Bacterial log10 reduction at time point” value [2, 22] was 0.7 log10. For the same compound, the “Minimum dosage (ppm, active) required for at least 3 log10 reduction in numbers of bacteria in 4 hours” value ([1]; approximately 10^7 CFU/mL) was 128.00 ppm.
`O=CCCCC=O` [Glutaraldehyde] was tested, and the “Minimum dosage (ppm, active) required for at least 3 log10 reduction in numbers of bacteria in 4 hours” value ([1]; approximately 10^7 CFU/mL) was 163.84 ppm.
For `NCl` [monochloramine], the “Minimum dosage (ppm, active) required for at least 3 log10 reduction in numbers of bacteria in 4 hours” value ([1]; active expressed as chlorine) was 8.00 (chlorine) ppm.
